Measured values taken from publication PMC10058425, “Exploring pta Alternatives in the Development of Ruthenium–Arene Anticancer Compounds” (Molecules, 2023).
Where “and” joins values, the source holds several entries; their conditions need not be identical. Identical values can stand only once.

Columns and labels:
[1] = test system: HT-29 (colorectal carcinoma); assay: MTT cell viability assay, HT-29; format: cell-based, Human; conditions: for IC50: 24 h of incubation, read-out: IC50 ± SD on HT-29
Method: (§1) Cell viability studies were determined by the MTT assay for complexes 1–8 toward MCF7 (breast adenocarcinoma), MDA-MB-231 (triple-negative breast adenocarcinoma), MG-63 (osteosarcoma), and HT-29 (colorectal carcinoma) after 24 h of incubation with new ruthenium compounds. Cisplatin was used as antitumor clinical reference. The three solid tumors selected for the cell viability study were chosen due to high incidence and the low efficacy of the current treatments. The two breast cancer cell lines used in this study represent two of the most relevant subtypes of breast cancer (MCF7: receptor-estrogen-positive breast cancer subtype; MDA-MB-231: triple-negative breast cancer subtype).
(§2) Human breast cancer cell lines (MCF-7 and MDA-MB-231), human bone cancer cell line (MG-63), and human colorectal cancer cell line (HT-29) were grown in Dulbecco’s modified Eagle’s medium (DMEM) containing 10% fetal bovine serum (FBS), 100 IU/mL penicillin, and 100 μg/mL streptomycin at 37 °C in 5% CO2 atmosphere. These cancer cell lines were grown in a […] until they reached 70–80% confluence. Then, the cells were subcultured using TrypLE TM. For experiments, cells were grown in multi-well plates. Dulbecco’s modified Eagle’s medium (DMEM) and TrypLE^TM were purchased from Gibco (Gaithersburg, MD, USA), and fetal bovine serum (FBS) was purchased from Internegocios (Argentina). After 24 h, the monolayers were washed with DMEM and incubated under different conditions according to the experiments. Tissue culture materials were purchased from Corning (Princeton, NJ, USA).
(§3) The 3-(4,5-dimethylthiazol-2-yl)-2,5-diphenyltetrazolium bromide (MTT) assay was performed according to Mosmann. Briefly, cells were seeded in a 96-well dish, allowed to attach for 24 h, and treated with different concentrations of complexes […] (2.5–100 µM) at 37 °C for 24 h. Afterward, the medium was changed and the cells were incubated with 0.5 mg/mL MTT under normal culture conditions for 3 h. Cell viability was marked by conversion of the tetrazolium salt MTT to a colored formazan by mitochondrial dehydrogenases. Color development was measured spectrophotometrically with a microplate reader multiskan FC (Thermo scientific) at 570 nm after cell lysis in DMSO (100 µL per well). Cell viability was plotted as the percentage of the control value.

MG-63 (osteosarcoma) = assay: MTT cell viability assay, MG-63; format: cell-based, Human; conditions: 24 h of incubation, read-out: IC50 ± SD on MG-63
Method: as §1, §2, §3

[2] = test system: MCF7 (breast adenocarcinoma); assay: MTT cell viability assay, MCF7; format: cell-based, Human; conditions: 24 h of incubation, read-out: IC50 ± SD on MCF7
Method: as §1, §2, §3

[3] = target: Glutathione S-transferase from horse liver (GST); assay: GST inhibition assay; format: biochemical; conditions: for Ki: Dixon plots, substrate 200, 400, 800 μM; for IC50 / GST IC50: substrate 1-chloro-2,4-dinitrobenzene, pH 6.5, 25 °C
Method: The activity of GST was measured according to the method described by Habig et al. (1974). Stock solutions of 1–8 (1 mg/mL) were prepared in 100% methanol (MeOH). Then, stock solutions of 1–8 and negative controls were added to the wells and progressively diluted in 100 mM sodium phosphate buffer (pH 6.5) at a final volume of 50 μL. 1-Chloro-2,4-dinitrobenzene (Sigma-Aldrich Co., St. Louis, MO, USA) was dissolved in EtOH to obtain a 50 mM solution, then diluted with 100 mM sodium phosphate buffer (pH 6.5) to a final concentration of 4 mM. This solution (50 μL) and solution of 2 mM reduced glutathione (100 μL), dissolved in the same buffer were added into the microtiter plate wells. Glutathione S-transferase from horse liver (GST; Sigma-Aldrich Co., St. Louis, MO, USA) was used as the source of enzyme and dissolved in 100 mM sodium phosphate buffer (pH 6.5). 50 μL of enzyme solution was added into wells to start the reaction. The final enzyme concentration was 0.044 U/mL. A blank reaction was performed with the appropriate dilution of MeOH. The reaction was followed spectrophotometrically at 340 nm and at 25 °C for 4 min using a Cytation 3 cell imaging multi-mode reader from BioTek (BioTek, Winooski, VT, USA). Each measurement was repeated at least three times. For determination of inhibitory constants (Ki), the kinetics were monitored using three different final substrate concentrations (200, 400, and 800 μM, respectively).

[4] = test system: MDA-MB-231 (triple-negative breast adenocarcinoma); assay: MTT cell viability assay, MDA-MB-231; format: cell-based, Human; conditions: for IC50: MTT, 24 h of incubation, read-out: IC50 ± SD on MDA-MB-231
Method: as §1, §2, §3

[5] = test system: MCF7, MDA-MB-231, MG-63, and HT-29 cell lines; assay: MTT cell viability assay, all cell lines tested; format: cell-based, Human; conditions: 24 h, span over all cell lines, read-out: IC50 in all cancer cell lines tested
Method: as §1
Human breast cancer cell lines (MCF-7 and MDA-MB-231), human bone cancer cell line (MG-63), and human colorectal cancer cell line (HT-29) were grown in Dulbecco’s modified Eagle’s medium (DMEM) containing 10% fetal bovine serum (FBS), 100 IU/mL penicillin, and 100 μg/mL streptomycin at 37 °C in 5% CO2 atmosphere. These cancer cell lines were grown in a […] until they reached 70–80% confluence. […]
The 3-(4,5-dimethylthiazol-2-yl)-2,5-diphenyltetrazolium bromide (MTT) assay was performed according to Mosmann. […] Color development was measured spectrophotometrically with a microplate reader multiskan FC (Thermo scientific) at 570 nm after cell lysis in DMSO (100 µL per well). […]

Row | Molecule | IC50 ([1]; MTT) | IC50 (MG-63 (osteosarcoma)) | IC50 [2] | Ki [3] | IC50 [3] | IC50 [4] | GST IC50 [3] | anticancer effect on colorectal cancer cells ([1]; MTT, 24 h) | IC50 [5] | IC50 fold lower than cisplatin on HT-29 cells ([1]; versus cisplatin) | IC50 fold lower than cisplatin on MDA-MB-231 cells ([4]; versus cisplatin)
1 | Cc1ccc(C(C)C)cc1.[Cl-].[O-]n1ccccc1=S.[Ru+2] [Compound 1, [(η^6-cymene)(Ru)(pyrithionato)Cl]] | > 100 µM | > 100 µM | > 100 µM | 0.75 µM | 3.15 ± 2.5 µM | > 100 µM | – | – | – | – | –
2 | [(η^6-p-cym)Ru(κ^2-O,S-C5H4NOS)(cap)]PF6 [Compound 3] | > 100 µM | > 100 µM | > 100 µM | – | – | > 100 µM | / (no inhibitory activity in tested concentration range (<125 µg/mL)) | – | – | – | –
3 | C1=CC2=[S][Ru+]([P](Oc3ccccc3)(Oc3ccccc3)Oc3ccccc3)[O]N2C=C1.Cc1ccc(C(C)C)cc1.F[P-](F)(F)(F)(F)F [Compound 7, [(η^6-p-cym)Ru(κ^2-O,S-C5H4NOS)(P(OPh)3)]PF6] | > 100 µM | 28.2 ± 2.5 µM | 33.7 ± 6.3 µM | 3.67 µM | 2.88 ± 0.9 µM | 18 ± 1.7 µM | – | did not exert anticancer effect | – | – | –
4 | N.N.[Cl][Pt][Cl] [Cisplatin, reference compound] | 180 ± 6 µM | 39 ± 1.8 µM | 42 ± 3.2 µM | – | – | 131 ± 18 µM | – | – | – | – | –
5 | CCO[P](OCC)(OCC)[Ru+]1[O]N2C=CC=CC2=[S]1.Cc1ccc(C(C)C)cc1.F[P-](F)(F)(F)(F)F [Compound 4, [(η^6-p-cym)Ru(κ^2-O,S-C5H4NOS)(P(OEt)3)]PF6] | > 100 µM | > 100 µM | 45 µM and 45.5 µM | – | 59.5 ± 0.9 µM | > 100 µM | – | – | – | – | –
6 | C1N2CN3CN1CP(C2)C3.Cc1ccc(C(C)C)cc1.F[P-](F)(F)(F)(F)F.[O-]n1ccccc1=S.[Ru+2] [Compound 2, [(η^6-cymene)(Ru)(pyrithionato)(pta)]PF6] | > 100 µM | > 100 µM | > 100 µM | – | – | > 100 µM | / (no inhibitory activity in tested concentration range (<125 µg/mL)) | – | – | – | –
7 | C1=CC2=[S][Ru+]([As](c3ccccc3)(c3ccccc3)c3ccccc3)[O]N2C=C1.Cc1ccc(C(C)C)cc1.F[P-](F)(F)(F)(F)F [Compound 8, [(η^6-p-cym)Ru(κ^2-O,S-C5H4NOS)(AsPh3)]PF6] | 40.8 ± 8.5 µM | 50.3 ± 2.5 µM | 35.3 ± 12.1 µM | 0.74 µM | 2.15 ± 0.4 µM | 35.8 ± 11.4 µM | – | – | 35 to 50 µM | – | –
8 | C1=CC2=[S][Ru+]([P](c3ccccc3)(c3ccccc3)c3ccccc3)[O]N2C=C1.Cc1ccc(C(C)C)cc1.F[P-](F)(F)(F)(F)F [Compound 6, [(η^6-p-cym)Ru(κ^2-O,S-C5H4NOS)(PPh3)]PF6] | 30.2 ± 1.4 µM | 21.2 ± 1.7 µM | 21.2 ± 3.2 µM | 1.3 µM | 11.8 ± 1.1 µM | 10.8 ± 1 µM | – | – | – | six-fold | twelve-fold
